Reference: patent publication US10870647B2, “Imidazopyridine derivative, method for preparing same, and pharmaceutical composition containing same as active ingredient for preventing or treating cancer” (DAEGU-GYEONGBUK MEDICAL INNOVATION FOUNDATION, priority 2016, dated 2020)

Key:
Experiment in all cases: Kinase selectivity, scanMAX Kinase assay panel (DiscoverX), % control at 1 uM
Format in all cases: binding
[1] = molecular target: T1, scanMAX Kinase assay panel (Homo sapiens, UniProt P30291); details: WEE1; 1 uM; read-out: Percent Control (%)
T1 construct: purchased DiscoverX
Outline: (§1)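 Compounds were tested at 1 uM in DMSO against each enzyme in the panel. Percent control was calculated as (compound − positive control)/(negative control − positive control) × 100, and a compound was scored active on a kinase when this value fell below 35.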

[2] = molecular target: T2, scanMAX Kinase assay panel (Homo sapiens, UniProt P42680); details: TEC; 1 uM; read-out: Percent Control (%)
T2 construct: purchased DiscoverX
T2 sequence (P42680 1-631): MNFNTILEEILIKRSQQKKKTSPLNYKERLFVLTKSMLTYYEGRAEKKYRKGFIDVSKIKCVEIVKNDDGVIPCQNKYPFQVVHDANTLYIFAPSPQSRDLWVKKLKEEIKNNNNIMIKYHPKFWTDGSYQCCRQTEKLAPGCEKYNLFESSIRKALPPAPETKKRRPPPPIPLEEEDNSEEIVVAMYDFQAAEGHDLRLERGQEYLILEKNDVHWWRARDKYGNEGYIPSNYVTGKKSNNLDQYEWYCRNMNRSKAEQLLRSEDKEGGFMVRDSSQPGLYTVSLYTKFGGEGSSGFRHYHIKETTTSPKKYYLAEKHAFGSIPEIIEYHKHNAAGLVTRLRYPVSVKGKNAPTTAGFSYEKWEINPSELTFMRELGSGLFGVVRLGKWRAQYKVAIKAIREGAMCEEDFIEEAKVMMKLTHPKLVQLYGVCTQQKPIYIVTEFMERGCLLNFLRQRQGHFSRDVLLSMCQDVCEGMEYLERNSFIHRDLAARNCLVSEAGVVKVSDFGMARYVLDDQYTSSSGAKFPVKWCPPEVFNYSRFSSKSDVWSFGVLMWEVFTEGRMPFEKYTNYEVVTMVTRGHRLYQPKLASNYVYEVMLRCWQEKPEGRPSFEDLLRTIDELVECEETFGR
Outline: as §1

[3] = molecular target: T3, scanMAX Kinase assay panel (Homo sapiens, UniProt P52333); details: JAK3 (JH1domain-catalytic); 1 uM; read-out: Percent Control (%)
T3 construct: purchased DiscoverX
T3 sequence (P52333 1-1124): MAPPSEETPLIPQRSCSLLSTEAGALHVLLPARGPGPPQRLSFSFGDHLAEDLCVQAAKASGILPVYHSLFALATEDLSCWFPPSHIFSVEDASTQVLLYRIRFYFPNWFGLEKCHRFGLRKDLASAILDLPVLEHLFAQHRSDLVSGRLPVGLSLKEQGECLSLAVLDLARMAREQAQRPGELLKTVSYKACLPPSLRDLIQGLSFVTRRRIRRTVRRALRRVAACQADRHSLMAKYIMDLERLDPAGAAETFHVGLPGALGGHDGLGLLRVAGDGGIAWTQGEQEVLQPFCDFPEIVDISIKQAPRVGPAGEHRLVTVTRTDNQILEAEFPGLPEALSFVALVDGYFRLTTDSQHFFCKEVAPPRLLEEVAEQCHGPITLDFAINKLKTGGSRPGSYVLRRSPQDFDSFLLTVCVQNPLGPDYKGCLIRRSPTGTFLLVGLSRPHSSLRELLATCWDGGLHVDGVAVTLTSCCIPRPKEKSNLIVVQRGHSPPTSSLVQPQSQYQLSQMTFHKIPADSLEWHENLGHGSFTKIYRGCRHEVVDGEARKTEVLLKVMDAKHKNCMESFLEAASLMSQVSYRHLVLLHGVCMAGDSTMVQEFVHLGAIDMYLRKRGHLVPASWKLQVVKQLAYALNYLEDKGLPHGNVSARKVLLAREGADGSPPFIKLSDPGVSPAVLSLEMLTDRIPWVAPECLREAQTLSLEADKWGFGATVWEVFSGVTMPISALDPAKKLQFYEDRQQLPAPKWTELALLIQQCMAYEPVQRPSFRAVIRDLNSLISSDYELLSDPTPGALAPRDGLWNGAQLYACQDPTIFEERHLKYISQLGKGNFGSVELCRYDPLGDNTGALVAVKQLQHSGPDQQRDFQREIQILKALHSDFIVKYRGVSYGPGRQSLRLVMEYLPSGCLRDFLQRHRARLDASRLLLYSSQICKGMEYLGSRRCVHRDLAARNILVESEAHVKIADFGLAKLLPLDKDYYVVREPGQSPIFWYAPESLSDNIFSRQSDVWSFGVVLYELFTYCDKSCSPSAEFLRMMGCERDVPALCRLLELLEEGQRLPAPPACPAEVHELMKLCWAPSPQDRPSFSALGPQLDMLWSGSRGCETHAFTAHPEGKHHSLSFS
Outline: as §1

[4] = molecular target: T4, scanMAX Kinase assay panel (Homo sapiens, UniProt Q8IVW4); details: CDKL3; 1 uM; read-out: Percent Control (%)
T4 construct: purchased DiscoverX
Outline: as §1

[5] = molecular target: T5, scanMAX Kinase assay panel (Homo sapiens, UniProt Q9H093); details: SNARK; 1 uM; read-out: Percent Control (%)
T5 construct: purchased DiscoverX
T5 sequence (Q9H093 1-628): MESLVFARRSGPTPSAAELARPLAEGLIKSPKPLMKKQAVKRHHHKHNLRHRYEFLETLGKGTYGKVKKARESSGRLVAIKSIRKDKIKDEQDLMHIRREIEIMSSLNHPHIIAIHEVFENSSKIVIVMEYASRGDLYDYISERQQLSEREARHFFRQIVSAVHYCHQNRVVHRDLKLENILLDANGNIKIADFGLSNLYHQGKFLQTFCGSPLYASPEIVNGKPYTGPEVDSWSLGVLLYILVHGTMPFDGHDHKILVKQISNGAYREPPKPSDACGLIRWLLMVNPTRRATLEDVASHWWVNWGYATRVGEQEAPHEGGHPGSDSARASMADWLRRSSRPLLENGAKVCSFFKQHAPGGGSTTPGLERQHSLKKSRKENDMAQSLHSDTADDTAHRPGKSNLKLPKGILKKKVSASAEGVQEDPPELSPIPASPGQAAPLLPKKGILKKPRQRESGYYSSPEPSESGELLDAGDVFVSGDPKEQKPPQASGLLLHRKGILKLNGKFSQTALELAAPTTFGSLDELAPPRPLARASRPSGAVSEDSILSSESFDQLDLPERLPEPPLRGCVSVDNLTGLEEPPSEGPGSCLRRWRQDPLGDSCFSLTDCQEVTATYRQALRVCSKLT
Outline: as §1

[6] = molecular target: T6, scanMAX Kinase assay panel (Homo sapiens, UniProt Q9UIK4); details: DAPK2; 1 uM; read-out: Percent Control (%)
T6 construct: purchased DiscoverX
Outline: as §1

T1 sequence (P30291 whole entry): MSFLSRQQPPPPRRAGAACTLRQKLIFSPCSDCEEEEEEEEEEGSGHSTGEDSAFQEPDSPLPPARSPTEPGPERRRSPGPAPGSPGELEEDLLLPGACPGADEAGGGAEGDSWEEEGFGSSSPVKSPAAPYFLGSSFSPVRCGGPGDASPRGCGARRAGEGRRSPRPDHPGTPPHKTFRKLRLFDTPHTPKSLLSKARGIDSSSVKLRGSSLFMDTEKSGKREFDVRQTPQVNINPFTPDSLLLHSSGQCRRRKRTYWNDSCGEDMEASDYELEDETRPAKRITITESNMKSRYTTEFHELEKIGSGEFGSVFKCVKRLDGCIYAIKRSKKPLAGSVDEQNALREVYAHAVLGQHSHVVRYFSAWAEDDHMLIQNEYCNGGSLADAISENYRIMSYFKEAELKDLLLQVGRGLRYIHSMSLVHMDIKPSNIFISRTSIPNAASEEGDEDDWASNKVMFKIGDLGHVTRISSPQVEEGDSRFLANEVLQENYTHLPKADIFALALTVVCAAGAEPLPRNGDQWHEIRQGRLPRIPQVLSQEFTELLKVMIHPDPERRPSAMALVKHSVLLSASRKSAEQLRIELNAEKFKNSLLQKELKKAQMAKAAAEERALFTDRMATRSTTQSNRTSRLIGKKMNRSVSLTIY
T6 sequence (Q9UIK4 whole entry): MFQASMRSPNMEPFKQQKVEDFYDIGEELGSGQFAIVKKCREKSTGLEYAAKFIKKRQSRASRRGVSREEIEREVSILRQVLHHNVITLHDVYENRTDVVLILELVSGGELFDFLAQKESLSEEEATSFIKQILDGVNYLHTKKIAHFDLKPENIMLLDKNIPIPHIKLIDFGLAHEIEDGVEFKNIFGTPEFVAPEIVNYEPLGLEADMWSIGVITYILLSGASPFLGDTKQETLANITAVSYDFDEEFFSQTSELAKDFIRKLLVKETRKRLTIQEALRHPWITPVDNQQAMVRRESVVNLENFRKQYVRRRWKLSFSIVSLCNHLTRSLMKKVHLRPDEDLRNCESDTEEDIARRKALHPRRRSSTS
T4 sequence (Q8IVW4 whole entry): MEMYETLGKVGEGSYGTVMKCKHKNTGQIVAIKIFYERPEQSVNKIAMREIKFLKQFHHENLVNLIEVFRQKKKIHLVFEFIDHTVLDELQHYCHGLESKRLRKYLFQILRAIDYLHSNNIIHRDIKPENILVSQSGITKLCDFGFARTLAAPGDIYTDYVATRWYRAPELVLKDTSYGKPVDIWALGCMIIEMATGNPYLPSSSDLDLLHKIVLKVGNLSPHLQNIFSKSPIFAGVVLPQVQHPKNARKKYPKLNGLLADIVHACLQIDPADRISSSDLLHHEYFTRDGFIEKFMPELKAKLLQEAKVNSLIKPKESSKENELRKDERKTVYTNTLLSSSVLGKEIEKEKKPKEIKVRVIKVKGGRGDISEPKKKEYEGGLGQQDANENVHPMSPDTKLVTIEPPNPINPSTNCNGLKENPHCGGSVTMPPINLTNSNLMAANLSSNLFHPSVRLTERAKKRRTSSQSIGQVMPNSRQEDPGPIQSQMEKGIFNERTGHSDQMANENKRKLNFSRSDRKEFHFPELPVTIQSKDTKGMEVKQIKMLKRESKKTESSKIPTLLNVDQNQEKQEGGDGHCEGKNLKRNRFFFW

| Structure (SMILES) | remaining binding at 1 µM [1] [%] | remaining binding at 1 µM [2] [%] | remaining binding at 1 µM [3] [%] | remaining binding at 1 µM [4] [%] | remaining binding at 1 µM [5] [%] | remaining binding at 1 µM [6] [%] |
| --- | --- | --- | --- | --- | --- | --- |
| Cc1ccc(C(=O)Nc2ccc(CN3CCN(C)CC3)c(C(F)(F)F)c2)cc1C#Cc1cnc2c(Nc3cnn(C)c3)cccn12 [Example 1, 4-methyl-3-((8-((1-methyl-1H-pyrazol-4-yl)amino)imidazo[1,2-a]pyridin-3-yl)ethynyl)-N-(4-((4-methylpiperazin-1-yl)methyl)-3-(trifluoromethyl)phenyl)benzamide] | 92 | 0 | 1 | 1 | 73 | 82 |
| Cc1cn(-c2cc(NC(=O)c3ccc(C)c(C#Cc4cnc5c(Nc6cnn(C)c6)cccn45)c3)cc(C(F)(F)F)c2)cn1 [Example 12, 4-methyl-N-(3-(4-methyl-1H-imidazol-1-yl)-5-(trifluoromethyl)phenyl)-3-((8-((1-methyl-1H-pyrazol-4-yl)amino)imidazo[1,2-a]pyridin-3-yl)ethynyl)benzamide] | 90 | 8 | 19 | 53 | 100 | 97 |
| Cc1ccc(NC(=O)C2(C(=O)Nc3ccc(F)cc3)CC2)cc1C#Cc1cnc2c(Nc3cnn(C(C)C)c3)cccn12 [Example 78] | 100 | 100 | 100 | 100 | 68 | 100 |
